Measured values taken from US20260207623A1, “USE OF ESTETROL IN HEPATICALLY IMPAIRED PATIENTS” (ESTETRA SRL, priority 2022, published 2026).

Test: Phase 1 pharmacokinetic study of a single oral dose of 20 mg E4 monohydrate in female subjects with normal hepatic function and mild, moderate or severe hepatic impairment (plasma, LC-MS/MS, non-compartmental analysis)
Assay type: in vivo, human
Conditions: for AUC0-24 h, GM / AUC0-24 h, Mean / AUC0-24 h, Median / AUCinf, GM / AUCinf, Mean / AUCinf, Median / AUClast, GM / AUClast, Mean / AUClast, Median / Cmax, GM / Cmax, Mean / Cmax, Median / T1/2, GM / T1/2, Mean / T1/2, Median / Tmax, Median / λz, GM / λz, Mean / λz, Median: single oral dose 20 mg E4 monohydrate, plasma
Protocol: This was a Phase 1, multi-centre, open-label, PK, and safety study of a single oral dose of 20 mg E4 monohydrate in female subjects with normal hepatic function (Group 1), mild hepatic impairment (Group 2), moderate hepatic impairment (Group 3), and severe hepatic impairment (Group 4), as defined using the Child-Pugh classification at Screening.
The study consisted of an eligibility Screening period (within 28 days prior to study drug administration), an Assessment Period with in-house period and outpatient visits (including a single oral dose of 20 mg E4 on Day 1), and a follow up visit. All subjects were confined to the study site from Day-1 (the day before dosing) until Day 4 and returned to the site every day from Day 5 to Day 9. Alternatively, the subjects could stay for a prolonged in-house period in agreement with the Investigator. The follow-up visit occurred on Day 14 (+2 days).
All subjects arrived at the study site in the morning of Day-1 in a fasted state (no food for at least 8 h, water was allowed) to have the scheduled assessments performed in order to confirm eligibility as outlined in the inclusion and exclusion criteria (Section 2.3.1 and Section 2.3.2, respectively). In the morning of Day 1 following an overnight fast, the subjects received oral dosing of 20 mg E4 monohydrate and remained at the site. Study-related assessments were performed at time points indicated in the Schedule of Assessments in Table 2.
Serial blood sampling for PK assessments started on Day 1 and proceeded until Day 9 according to the Pharmacokinetic Sampling Schedule presented in Table 3.
Each enrolled subject was to receive a single oral dose of 20 mg of E4 (estetrol) as monohydrate as a film-coated tablet.
Study drug was administered to subjects in the morning after an overnight fast of at least 8 h.
Calculation of non-compartmental PK parameters were done using WinNonlin™ Professional, Version 6.3 or higher.
The primary PK parameters to be analyzed for E4 in plasma: • Cmax=maximum observed plasma concentration • AUCinf=area under the concentration-time curve (AUC) from time zero extrapolated to infinity
The analysis of E4 and the metabolites E4-3-glucuronide and E4-16-glucuronide in plasma samples were performed at the Bioanalytical Laboratory of the CRO using a validated liquid chromatography-mass spectrometry/mass spectrometry method.
Individual and mean plasma concentrations at each sampling time point for E4 are presented by listings and descriptive summary statistics including means, geometric means (GMs), medians, ranges, standard deviations (SD) and coefficients of variation (CV). Individual, mean and/or median concentrations per hepatic function group were plotted versus time on semilogarithmic scales.
PK parameters were calculated by non-compartmental analysis. PK parameters were analysed using descriptive statistics and are presented by hepatic function group.
Analysis of variance (ANOVA) were used to compare primary PK parameters of E4 (Cmax and AUCinf) between subjects with hepatic impairment and subjects with normal hepatic function in an exploratory approach, using the log-transformed value of each PK parameter as dependent variable, and the hepatic impairment group (normal, mild, moderate, and severe) as a fixed classification factor. Geometric least squares means were used to calculate the ratios of primary PK parameters for each hepatic impairment group to those in the control group, along with 90% confidence intervals (CIs).
Additionally, the impact of age and BMI on the effect of hepatic impairment were evaluated using an ANOVA model similar as the ANOVA model described above, but with the interaction between each factor and the hepatic impairment group included as an additional factor.
The relationship between log-transformed PK parameters (Cmax and AUCinf) and continuous parameters (albumin, total bilirubin, and prothrombin time) used for the Child-Pugh score was explored by a linear regression approach. […]

AUC0-24 h, GM (Mild hepatic impairment): 315.86 ng·h/mL
AUC0-24 h, Mean (Mild hepatic impairment): 322.40 ng·h/mL
AUC0-24 h, Median (Mild hepatic impairment): 302.66 ng·h/mL
AUCinf, GM (Mild hepatic impairment): 497.24 ng·h/mL
AUCinf, Mean (Mild hepatic impairment): 506.96 ng·h/mL
AUCinf, Median (Mild hepatic impairment): 483.73 ng·h/mL
AUClast, GM (Mild hepatic impairment): 473.28 ng·h/mL
AUClast, Mean (Mild hepatic impairment): 483.07 ng·h/mL
AUClast, Median (Mild hepatic impairment): 440.22 ng·h/mL
Cmax, GM (Mild hepatic impairment): 113.610 ng/mL
Cmax, Mean (Mild hepatic impairment): 118.113 ng/mL
Cmax, Median (Mild hepatic impairment): 114.000 ng/mL
T1/2, GM (Mild hepatic impairment): 23.130 h
T1/2, Mean (Mild hepatic impairment): 24.540 h
T1/2, Median (Mild hepatic impairment): 24.692 h
Tmax, Median (Mild hepatic impairment): 0.490 h
λz, GM (Mild hepatic impairment): 0.0300 h⁻¹
λz, Mean (Mild hepatic impairment): 0.0318 h⁻¹
λz, Median (Mild hepatic impairment): 0.0281 h⁻¹
AUC0-24 h, GM (Moderate hepatic impairment): 269.04 ng·h/mL
AUC0-24 h, Mean (Moderate hepatic impairment): 282.87 ng·h/mL
AUC0-24 h, Median (Moderate hepatic impairment): 299.08 ng·h/mL
AUCinf, GM (Moderate hepatic impairment): 363.25 ng·h/mL
AUCinf, Mean (Moderate hepatic impairment): 388.13 ng·h/mL
AUCinf, Median (Moderate hepatic impairment): 412.85 ng·h/mL
AUClast, GM (Moderate hepatic impairment): 311.58 ng·h/mL
AUClast, Mean (Moderate hepatic impairment): 336.84 ng·h/mL
AUClast, Median (Moderate hepatic impairment): 325.82 ng·h/mL
Cmax, GM (Moderate hepatic impairment): 111.990 ng/mL
Cmax, Mean (Moderate hepatic impairment): 122.863 ng/mL
Cmax, Median (Moderate hepatic impairment): 133.000 ng/mL
T1/2, GM (Moderate hepatic impairment): 14.390 h
T1/2, Mean (Moderate hepatic impairment): 17.084 h
T1/2, Median (Moderate hepatic impairment): 14.153 h
Tmax, Median (Moderate hepatic impairment): 1 h
λz, GM (Moderate hepatic impairment): 0.0500 h⁻¹
λz, Mean (Moderate hepatic impairment): 0.0560 h⁻¹
λz, Median (Moderate hepatic impairment): 0.0502 h⁻¹
AUC0-24 h, GM (Normal hepatic function): 279.86 ng·h/mL
AUC0-24 h, Mean (Normal hepatic function): 290.53 ng·h/mL
AUC0-24 h, Median (Normal hepatic function): 309.09 ng·h/mL
AUCinf, GM (Normal hepatic function): 458.11 ng·h/mL
AUCinf, Mean (Normal hepatic function): 485.88 ng·h/mL
AUCinf, Median (Normal hepatic function): 495.16 ng·h/mL
AUClast, GM (Normal hepatic function): 446.22 ng·h/mL
AUClast, Mean (Normal hepatic function): 474.51 ng·h/mL
AUClast, Median (Normal hepatic function): 485.66 ng·h/mL
Cmax, GM (Normal hepatic function): 68.240 ng/mL
Cmax, Mean (Normal hepatic function): 73.238 ng/mL
Cmax, Median (Normal hepatic function): 70.100 ng/mL
T1/2, GM (Normal hepatic function): 19.540 h
T1/2, Mean (Normal hepatic function): 20.112 h
T1/2, Median (Normal hepatic function): 18.583 h
Tmax, Median (Normal hepatic function): 0.500 h
λz, GM (Normal hepatic function): 0.0400 h⁻¹
λz, Mean (Normal hepatic function): 0.0364 h⁻¹
λz, Median (Normal hepatic function): 0.0373 h⁻¹
AUC0-24 h, GM (Severe hepatic impairment): 299.07 ng·h/mL
AUC0-24 h, Mean (Severe hepatic impairment): 314.97 ng·h/mL
AUC0-24 h, Median (Severe hepatic impairment): 264.88 ng·h/mL
AUCinf, GM (Severe hepatic impairment): 332.77 ng·h/mL
AUCinf, Mean (Severe hepatic impairment): 367.42 ng·h/mL
AUCinf, Median (Severe hepatic impairment): 305.49 ng·h/mL
AUClast, GM (Severe hepatic impairment): 325.76 ng·h/mL
AUClast, Mean (Severe hepatic impairment): 360.81 ng·h/mL
AUClast, Median (Severe hepatic impairment): 296.24 ng·h/mL
Cmax, GM (Severe hepatic impairment): 93.970 ng/mL
Cmax, Mean (Severe hepatic impairment): 96.250 ng/mL
Cmax, Median (Severe hepatic impairment): 91.550 ng/mL
T1/2, GM (Severe hepatic impairment): 7.710 h
T1/2, Mean (Severe hepatic impairment): 8.652 h
T1/2, Median (Severe hepatic impairment): 6.277 h
Tmax, Median (Severe hepatic impairment): 0.510 h
λz, GM (Severe hepatic impairment): 0.0900 h⁻¹
λz, Mean (Severe hepatic impairment): 0.1005 h⁻¹
λz, Median (Severe hepatic impairment): 0.1104 h⁻¹
time to primary peak of GM plasma concentrations (all groups): ≤ 1 h
Tmax was reached within (mild hepatic impairment): ≤ 2 h
time post dose until which concentrations remained above LLOQ in at least half of the subjects (mild hepatic impairment): 96 h
Tmax was reached within (moderate hepatic impairment): ≤ 2 h
time post dose until which concentrations remained above LLOQ in at least half of the subjects (moderate hepatic impairment): 48 h
time post dose until which concentrations remained above LLOQ in at least half of the subjects (normal hepatic function): 96 h
Tmax was reached within (normal hepatic function (due to an outlier)): ~ 6 h
Tmax was reached within (severe hepatic impairment): ≤ 1 h
time post dose until which concentrations remained above LLOQ in at least half of the subjects (severe hepatic impairment): 36 h
SMILES: CC12CCC3c4ccc(OC5OC(C(=O)O)C(O)C(O)C5O)cc4CCC3C1C(O)C(O)C2O (stereo not shown) [E4-3-glucuronide, estetrol-3-glucuronide]
